Data as given in PubChem BioAssay (NCI).
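Following 48 hours of exposure in 96-well plates, responses at five concentrations were used to interpolate endpoints linearly. Here, GI50 denotes the concentration required for 50% inhibition of growth. TGI denotes the concentration required for complete inhibition of growth.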

How the values were obtained:
Assay in all cases: NCI anticancer screen, dose series, 48 h
786-0 renal = tested on: 786-0 renal
A498 renal = tested on: A498 renal
ACHN renal = tested on: ACHN renal
BT-549 breast = tested on: BT-549 breast
CAKI-1 renal = tested on: CAKI-1 renal
CCRF-CEM leukemia = tested on: CCRF-CEM leukemia
COLO 205 colon = tested on: COLO 205 colon
DU-145 prostate = tested on: DU-145 prostate
EKVX NSCLC = tested on: EKVX NSCLC
HCC-2998 colon = tested on: HCC-2998 colon
HCT-116 colon = tested on: HCT-116 colon
HCT-15 colon = tested on: HCT-15 colon
HOP-62 NSCLC = tested on: HOP-62 NSCLC
HOP-92 NSCLC = tested on: HOP-92 NSCLC
HS 578T breast = tested on: HS 578T breast
HT29 colon = tested on: HT29 colon
KM12 colon = tested on: KM12 colon
LOX IMVI melanoma = tested on: LOX IMVI melanoma
M14 melanoma = tested on: M14 melanoma
MALME-3M melanoma = tested on: MALME-3M melanoma
MCF7 breast = tested on: MCF7 breast
MDA-MB-231 breast = tested on: MDA-MB-231 breast
MDA-MB-435 = tested on: MDA-MB-435
NCI-H226 lung = tested on: NCI-H226 lung
NCI-H23 lung = tested on: NCI-H23 lung
NCI-H460 lung = tested on: NCI-H460 lung
NCI-H522 lung = tested on: NCI-H522 lung
NCI/ADR-RES ovarian = tested on: NCI/ADR-RES ovarian
OVCAR-3 ovarian = tested on: OVCAR-3 ovarian
OVCAR-4 ovarian = tested on: OVCAR-4 ovarian
OVCAR-5 ovarian = tested on: OVCAR-5 ovarian
RPMI-8226 leukemia = tested on: RPMI-8226 leukemia
RXF 393 renal = tested on: RXF 393 renal
SF-268 CNS = tested on: SF-268 CNS
SF-295 CNS = tested on: SF-295 CNS
SF-539 CNS = tested on: SF-539 CNS
SK-MEL-2 melanoma = tested on: SK-MEL-2 melanoma
SK-MEL-28 melanoma = tested on: SK-MEL-28 melanoma
SK-MEL-5 melanoma = tested on: SK-MEL-5 melanoma
SK-OV-3 ovarian = tested on: SK-OV-3 ovarian
SN12C renal = tested on: SN12C renal
SNB-19 CNS = tested on: SNB-19 CNS
SNB-75 CNS = tested on: SNB-75 CNS
SW-620 colon = tested on: SW-620 colon
T-47D breast = tested on: T-47D breast
TK-10 renal = tested on: TK-10 renal
U251 CNS = tested on: U251 CNS
UACC-62 melanoma = tested on: UACC-62 melanoma
UO-31 renal = tested on: UO-31 renal

`CCCCCCCC/C(=C\C1=C(C)C(=O)C(OC)=C(OC)C1=O)C(=O)O` was tested, and the GI50 (786-0 renal) was 62.7 µM, the TGI (786-0 renal) was > 100 µM and the GI50 (A498 renal) was 78.8 µM. The TGI (A498 renal) was > 100 µM, the GI50 (ACHN renal) was 29 µM and the TGI (ACHN renal) was > 100 µM. It also gave a GI50 (BT-549 breast) of 24.2 µM, a TGI (BT-549 breast) of 54.6 µM and a GI50 (CAKI-1 renal) of 51.2 µM. For the same molecule, the TGI (CAKI-1 renal) was > 100 µM, the GI50 (CCRF-CEM leukemia) was 20.2 µM and the TGI (CCRF-CEM leukemia) was 42.5 µM. The GI50 (COLO 205 colon) was > 100 µM, the TGI (COLO 205 colon) was > 100 µM and the GI50 (DU-145 prostate) was 25.4 µM. For the same molecule, the TGI (DU-145 prostate) was 94 µM, the GI50 (EKVX NSCLC) was 15.8 µM and the TGI (EKVX NSCLC) was 31.6 µM. For the same molecule, the GI50 (HCC-2998 colon) was 66.2 µM, the TGI (HCC-2998 colon) was > 100 µM and the GI50 (HCT-116 colon) was 16.3 µM. The TGI (HCT-116 colon) was 29.9 µM, the GI50 (HCT-15 colon) was 63.6 µM and the TGI (HCT-15 colon) was > 100 µM. The GI50 (HOP-62 NSCLC) was 73.2 µM, the TGI (HOP-62 NSCLC) was > 100 µM and the GI50 (HOP-92 NSCLC) was 13 µM. It also gave a TGI (HOP-92 NSCLC) of 29.6 µM, a GI50 (HS 578T breast) of 23.8 µM and a TGI (HS 578T breast) of 83.9 µM. For the same molecule, the GI50 (HT29 colon) was 65.1 µM, the TGI (HT29 colon) was > 100 µM and the GI50 (KM12 colon) was 53.5 µM. For the same molecule, the TGI (KM12 colon) was > 100 µM, the GI50 (LOX IMVI melanoma) was 19.9 µM and the TGI (LOX IMVI melanoma) was 45.5 µM. For the same molecule, the GI50 (M14 melanoma) was > 100 µM, the TGI (M14 melanoma) was > 100 µM and the GI50 (MALME-3M melanoma) was 51.3 µM. The TGI (MALME-3M melanoma) was > 100 µM, the GI50 (MCF7 breast) was 22.3 µM and the TGI (MCF7 breast) was 44.8 µM. For the same molecule, the GI50 (MDA-MB-231 breast) was 21.4 µM, the TGI (MDA-MB-231 breast) was 51.2 µM and the GI50 (MDA-MB-435) was 18.8 µM. The TGI (MDA-MB-435) was 37 µM, the GI50 (NCI-H226 lung) was 29.2 µM and the TGI (NCI-H226 lung) was > 100 µM. For the same molecule, the GI50 (NCI-H23 lung) was 57.7 µM, the TGI (NCI-H23 lung) was > 100 µM and the GI50 (NCI-H460 lung) was 86.7 µM. The TGI (NCI-H460 lung) was > 100 µM, the GI50 (NCI-H522 lung) was 78.1 µM and the TGI (NCI-H522 lung) was > 100 µM. For the same molecule, the GI50 (NCI/ADR-RES ovarian) was 27.1 µM, the TGI (NCI/ADR-RES ovarian) was 97.5 µM and the GI50 (OVCAR-3 ovarian) was 34.1 µM. The TGI (OVCAR-3 ovarian) was > 100 µM, the GI50 (OVCAR-4 ovarian) was 19.9 µM and the TGI (OVCAR-4 ovarian) was 36.9 µM. For the same molecule, the GI50 (OVCAR-5 ovarian) was > 100 µM, the TGI (OVCAR-5 ovarian) was > 100 µM and the GI50 (RPMI-8226 leukemia) was 20.5 µM. The TGI (RPMI-8226 leukemia) was 49.9 µM, the GI50 (RXF 393 renal) was 23.7 µM and the TGI (RXF 393 renal) was 44.1 µM. For the same molecule, the GI50 (SF-268 CNS) was 29.5 µM, the TGI (SF-268 CNS) was 70.3 µM and the GI50 (SF-295 CNS) was 43 µM. For the same molecule, the TGI (SF-295 CNS) was > 100 µM, the GI50 (SF-539 CNS) was 23.2 µM and the TGI (SF-539 CNS) was 75.5 µM. For the same molecule, the GI50 (SK-MEL-2 melanoma) was > 100 µM, the TGI (SK-MEL-2 melanoma) was > 100 µM and the GI50 (SK-MEL-28 melanoma) was 43.4 µM. For the same molecule, the TGI (SK-MEL-28 melanoma) was > 100 µM, the GI50 (SK-MEL-5 melanoma) was 36.7 µM and the TGI (SK-MEL-5 melanoma) was > 100 µM. For the same molecule, the GI50 (SK-OV-3 ovarian) was > 100 µM, the TGI (SK-OV-3 ovarian) was > 100 µM and the GI50 (SN12C renal) was 0.198 µM. For the same molecule, the TGI (SN12C renal) was 29.2 µM, the GI50 (SNB-19 CNS) was 75.9 µM and the TGI (SNB-19 CNS) was > 100 µM. For the same molecule, the GI50 (SNB-75 CNS) was 67.7 µM, the TGI (SNB-75 CNS) was > 100 µM and the GI50 (SW-620 colon) was 35 µM. For the same molecule, the TGI (SW-620 colon) was > 100 µM, the GI50 (T-47D breast) was 21.9 µM and the TGI (T-47D breast) was 48.8 µM. For the same molecule, the GI50 (TK-10 renal) was > 100 µM, the TGI (TK-10 renal) was > 100 µM and the GI50 (U251 CNS) was 19.9 µM. The TGI (U251 CNS) was 41.8 µM, the GI50 (UACC-62 melanoma) was 33.8 µM and the TGI (UACC-62 melanoma) was > 100 µM. The GI50 (UO-31 renal) was 40.3 µM and the TGI (UO-31 renal) was > 100 µM.
